Drawing on patent US6436960B1, “Farnesyl transferase inhibitors having a piperidine structure and process for preparation thereof” (LG Chemical Ltd., priority 1998, dated 2002), this text covers IC50 for 13 compounds.

Test [1] deals with T1, Ras farnesyl transferase (Homo sapiens, UniProt P49354+P49356).
T1 construct: made in house
Nature of the test: in vitro inhibitory activity for Ras farnesyl transferase, H-Ras substrate. In kind it is biochemical. Conditions: recombinant Ras farnesyl transferase, H-Ras substrate, tritium-farnesylpyrophosphate, 30 minutes at 37° C.; read-out: H-Ras IC50. How it is done:
In the present experiment, Ras farnesyl transferase produced by genetic recombination techniques according to the improved Pompliano's method (Pompliano et al., Biochemistry, 1992, 31, 3800) was used, and Ras substrate(Ras-CVLS) protein described in Korean Patent Appln. No. 97-14409 was used after it has been purified according to the known method(see, Chung et al., Biochimica et Biophysica Acta, 1992, 278, 1129).
(§1) The enzyme reaction was performed in 50 μl of 50 mM Soduam HEPES buffer solution containing 25 mM of potassium chloride, 25 mM of magnesium chloride, 10 mM of DTT and 50 μM of zinc chloride. 1.5 μM of Ras substrate protein, 0.15 μM of tritium-farnesylpyrophosphate and 4.5 nM of farnesyl transferase were used.
(§2) More specifically, in the initial step, farnesyl transferase was added to the above buffer solution, reaction was maintained for 30 minutes at 37° C. and then the reaction was stopped by adding 1 ml of ethanol solution containing 1M HCl. The formed precipitates were adsorbed to GF/B filter using Hopper harvestor(Hopper #FH 225V) for filter-binding, washed with ethanol, and then radioactivity of the dried filter was measured using LKB β counter. Enzyme titer was measured in the unsaturated state of substrate where the concentrations of Ras substrate protein and farnesyl transferase have quantitative relationship. The compound according to the present invention dissolved in dimethyl sulfoxide(DMSO) was added to the reaction solution in an amount of less than 5% of the total reaction solution, and then the enzyme inhibitory activity thereof was measured. The enzyme inhibitory activity was represented by percentage of the amount of farnesyl incorporated into the Ras substrate protein in the presence of the test compound to that in the absence of the test compound. IC50 of the test compound was defined as the concentration at which 50% of the enzyme activity was inhibited.

The target of test [2] is T1, Ras farnesyl transferase. Nature of the test: in vitro inhibitory activity for Ras farnesyl transferase, K-Ras substrate. The following applies: recombinant Ras farnesyl transferase, K-Ras substrate; read-out: K-Ras IC50. The class given is biochemical. As for the experimental part:
In the present experiment, Ras farnesyl transferase produced by genetic recombination techniques according to the improved Pompliano's method (Pompliano et al., Biochemistry, 1992, 31, 3800) was used, […] Appln. No. 97-14409 was used after it has been purified according to the known method(see, Chung et al., Biochimica et Biophysica Acta, 1992, 278, 1129).
as §1, §2

Test [3] has as its target T2, Ras farnesyl transferase (Rattus norvegicus, UniProt Q02293+Q04631).
T2 construct: endogenous in cells; host or cells: Rat2 fibroblasts transformed with C-Harvey-Ras, or with H-Ras carrying the K-Ras C-terminal polybasic lysine domain
Nature of the test: in vivo (cellular) Ras farnesyl transferase inhibitory activity, Rat2 cells transformed with H-Ras fused with polybasic lysine domain of K-Ras. In kind it is cell-based. The following applies: Rat2 cell line transformed with H-Ras substituted with polybasic lysine domain at C-terminus of K-Ras; concentration inhibiting 50% of farnesyl binding; read-out: K-Ras CIC50. How it is done: (§3) In the present experiment, Rat2 cell line which expresses C-Harvey-Ras protein having transforming activity and Rat2 cell line(Korean patent application No. 97-14409) which is transformed with fused protein of H-Ras substituted with polybasic lysine domain at C-terminus of K-Ras were used. The experiment was performed by the modified Declue's method(Declue. J. E. et al., Cancer Research, 1991, 51, 712). Hereinafter, the experimental method will be described in more detail.
(§4) 3×10^5 cells of transformed Rat2 fibroblast cell line were sprayed on 60 mm cell cultivation dish and cultivated for 48 hours in a cell incubator at 37° C. and after 50% or more of density was reached, it was treated with the test compounds. The compound according to the present invention dissolved in dimethylsulfoxide(DMSO) was used. 1% concentration of dimethylsulfoxide was used in both control and test groups. After 4 hours from the treatment with the compound, methionine labeled with 150 μCi of radioactive isotope [^35S] per 1 ml of medium was added and after cultivating for 20 hours, the cells were washed with physiological saline water. The cells were lysed using 1 ml of cold cell lysis buffer solution(50 mM of Sodium HEPES buffer solution containing 5 mM of magnesium chloride, 1 mM of DTT, 1% NP 40, 1 mM of EDTA, 1 mM of PMSF, 2 μM of leupeptin, 2 μM of pepstatin A and 2 μM of antipain) and the supernatant wherein the cells were lysed was obtained by high-velocity centrifugation of 12,000 g×5 minutes. The amount of radioisotope in the supernatant was measured and standardized to obtain a quantitative result in immunoprecipitation reaction and then, Y13-259, a monoclonal antiboby specifically binding to Ras protein(Furth, M. E. et al., J. Virol, 1982, 43, 294) was added and reacted for 15 hours at 4° C. Protein A(combined with goat anti-murine imunoglobulin antibody)-agarose suspension was added to the solution and reacted for 1 hour at 4° C. and then, to remove the unspecific binding product, immunoprecipitates were washed with a buffer solution (50 mM Tris chloride buffer solution containing 50 mM of sodium chloride, 0.5% of sodium dioxycholate, 0.5% of NP 40 and 0.1% of SDS). The precipitates were added to a buffer solution for electrophoresis and boiled and then, electrophoresis was performed using 13.5% of SDS polyacrylamide gel. After electrophoresis, the gel was fixed and dried. Then, the gel was exposed to X-ray film, developed and printed. From the result of the experiment, intensities of band of protein combined with or without farnesyl of Ras protein were measured, and the concentration of the test compound inhibiting 50% of farnesyl binding was defined as CIC50, an in vivo Ras farnesyl transferase inhibitory activity.

In test [4] the target is T2, Ras farnesyl transferase. Nature of the test: in vivo (cellular) Ras farnesyl transferase inhibitory activity, Rat2 cells expressing C-Harvey-Ras. In kind it is cell-based. The following applies: Rat2 cell line expressing C-Harvey-Ras; concentration inhibiting 50% of farnesyl binding of Ras protein; read-out: H-Ras CIC50. As for the experimental part: as §3, §4

Turning to `O=C(OCc1ccccc1)N1CCC(Cn2cncc2Cn2cc(C(=O)N3CCOCC3)c(-c3cccc4ccccc34)c2)CC1` [Compound 1, 1-[1-(1-Benzyloxycarbonyl-piperidin-4-ylmethyl)-1H-imidazol-5-ylmethyl]-3-(morpholin-4-yl)carbonyl-4-(naphthalen-1-yl)-1H-pyrrole], the IC50 at Ras farnesyl transferase [1] is 8.5 nM; on Ras farnesyl transferase [2] it was 2400 nM; at Ras farnesyl transferase [3], 1000 to 10000 nM; at Ras farnesyl transferase [4], 100 nM.
Consider `O=C(c1cn(Cc2cncn2CC2CCNCC2)cc1-c1cccc2ccccc12)N1CCOCC1` [Compound 2], for which the IC50 was 9 nM on Ras farnesyl transferase [1], 6000 nM at Ras farnesyl transferase [2], 10000 to 100000 nM on Ras farnesyl transferase [3] and 100 nM at Ras farnesyl transferase [4].
`CC(=O)N1CCC(Cn2cncc2Cn2cc(C(=O)N3CCOCC3)c(-c3cccc4ccccc34)c2)CC1` [Compound 3, 1-[1-(1-Acetylpiperidin-4-ylmethyl)-1H-imidazol-5-ylmethyl]-3-(morpholinyl)carbonyl-4-(naphthalen-1-yl)-1H-pyrrole]: the IC50 at Ras farnesyl transferase [1] was 1 nM; at Ras farnesyl transferase [2], 16 nM; on Ras farnesyl transferase [3], 10000 to 50000 nM; at Ras farnesyl transferase [4], 10 to 100 nM.
On the same counts, the results for `CS(=O)(=O)N1CCC(Cn2cncc2Cn2cc(C(=O)N3CCOCC3)c(-c3cccc4ccccc34)c2)CC1` [Compound 4, 1-[1-(1-Methylsulfonyl-piperidin-4-ylmethyl)-1H-imidazol-5-ylmethyl]-3-(morpholin-4-yl)carbonyl-4-(naphthalen-1-yl)-1H-pyrrole] are 3.6 nM, 26 nM, 10000 to 50000 nM and 10 to 100 nM.
The like results for `COCCN(C)C(=O)c1cn(Cc2cncn2CC2CCN(C(=O)OCc3ccccc3)CC2)cc1-c1cccc2ccccc12` [Compound 5, 1-[1-(1-Benzyloxycarbonyl-piperidin-4-ylmethyl)-1H-imidazol-5-ylmethyl]-3-[N-(2-methoxyethyl)-N-methyl]carbamoyl-4-(naphthalen-1-yl)-1H-pyrrole] were, in that order, 2.5 nM, 10 to 100 nM, 1000 to 10000 nM and 10 to 100 nM.
On to `COCCN(C)C(=O)c1cn(Cc2cncn2CC2CCNCC2)cc1-c1cccc2ccccc12` [Compound 6, 3-[N-(2-Methoxyethyl)-N-methyl]carbamoyl-4-(naphthalen-1-yl)-1-[1-(piperidin-4-ylmethyl)-1H-imidazol-5-ylmethyl]-1H-pyrrole], for which the IC50 is 8 nM at Ras farnesyl transferase [1], 10 to 1000 nM on Ras farnesyl transferase [2], 1000 to 10000 nM on Ras farnesyl transferase [3] and 10 to 100 nM at Ras farnesyl transferase [4].
The like results for `COCCN(C)C(=O)c1cn(Cc2cncn2CC2CCN(C(C)=O)CC2)cc1-c1cccc2ccccc12` [Compound 7, 1-[1-(1-Acetyl-piperidin-4-ylmethyl)-1H-imidazol-5-ylmethyl]-3-[N-(2-methoxyethyl)-N-methyl]carbamoyl-4-(naphthalen-1-yl)-1H-pyrrole] were, in that order, 1.8 nM, 10 to 100 nM, 10000 to 100000 nM and 10 to 100 nM.
On the same counts, the results for `COCCN(C)C(=O)c1cn(Cc2cncn2CC2CCN(S(C)(=O)=O)CC2)cc1-c1cccc2ccccc12` [Compound 8, 3-[N-(2-Methoxyethyl)-N-methyl]carbamoyl-1-[1-(1-methylsulfonyl-piperidin-4-ylmethyl)-1H-imidazol-5-ylmethyl]-4-(naphthalen-1-yl)-1H-pyrrole] are 1.2 nM, 10 to 100 nM, 10000 to 50000 nM and 10 to 100 nM.
The like results for `COCCN(C)C(=O)c1cn(Cc2cncn2CC2CCN(C(=O)NCc3ccccc3)CC2)cc1-c1cccc2ccccc12` [Compound 9, 1-{1-[1-(N-Benzylcarbamoyl)-piperidin-4-ylmethyl]-1H-imidazol-5-ylmethyl}-3-[N-(2-methoxyethyl)-N-methyl]carbamoyl(naphthalen-1-yl)-1H-pyrrole] were, in that order, 1 to 10 nM, 10 to 1000 nM, 1000 to 50000 nM and 10 to 100 nM.
Consider `CCCCNC(=O)N1CCC(Cn2cncc2Cn2cc(C(=O)N(C)CCOC)c(-c3cccc4ccccc34)c2)CC1` [Compound 10, 1-{1-[1-(N-Butylcarbamoyl)-piperidin-4-ylmethyl]-1H-imidazol-5-ylmethyl}-3[N-(2-methoxyethyl)-N-methyl]carbamoyl-4-(naphthalen-1-yl)-1H-pyrrole], for which the IC50 at Ras farnesyl transferase [1] lay within 1 to 10 nM; at Ras farnesyl transferase [2] it was 10 to 1000 nM; at Ras farnesyl transferase [3], 1000 to 50000 nM; on Ras farnesyl transferase [4] it was 10 to 100 nM.
On the same counts, the results for `COCCN(C)C(=O)c1cn(Cc2cncn2CC2CCN(C(=O)NC3CCCCC3)CC2)cc1-c1cccc2ccccc12` [Compound 11, 1-{1-[1-(N-Cyclohexylcarbamoyl)-piperidin-4-ylmethyl]-1H-imidazol-5-ylmethyl}-3-[N-(2-methoxyethyl)-N-methyl]carbamoyl-4-(naphthalen-1-yl)-1H-pyrrole] are 1 to 10 nM, 10 to 1000 nM, 1000 to 50000 nM and 10 to 100 nM.
Regarding `CCCCCCC(=O)N1CCC(Cn2cncc2Cn2cc(C(=O)N(C)CCOC)c(-c3cccc4ccccc34)c2)CC1` [Compound 12, 1-[1-(1-Heptanoyl-piperidin-4-ylmethyl)-1H-imidazol-5-ylmethyl]-3-[N-(2-methoxyethyl)-N-methyl]carbamoyl-4-(naphthalen-1-yl)-1H-pyrrole], the IC50 was 1 to 10 nM on Ras farnesyl transferase [1], 10 to 1000 nM at Ras farnesyl transferase [2], 1000 to 50000 nM at Ras farnesyl transferase [3] and 10 nM at Ras farnesyl transferase [4].
On the same counts, the results for `COCCN(C)C(=O)c1cn(Cc2cncn2CC2CCN(C(=O)Cc3ccc(OC)cc3)CC2)cc1-c1cccc2ccccc12` [Compound 13, 1-{1-[1-(4-Methoxybenzylcarbonyl)-piperidin-4-ylmethyl]-1H-imidazol-5-ylmethyl}-3-[N-(2-methoxyethyl)-N-methyl]carbamoyl-4-(naphthalen-1-yl)-1H-pyrrole] are 1 to 10 nM, 10 to 1000 nM, 1000 to 50000 nM and 10 to 100 nM.
